Series [1] deals with T1, human serum albumin (HSA) (Homo sapiens, UniProt P02768).
T1 construct: purchased Sigma Aldrich
Nature of the series: Taylor dispersion (OneStep) SPR, kinetic analysis of flavonoids on immobilized HSA. The series is classed as binding. Conditions: for kon / koff: pH 7.4, HSA. How it is done: (§1) Hydroxyl-gel modified sensor chips and coupling reagents for the Pioneer SPR instrument (SensiQ Technologies, Oklahoma City, OK, USA) were obtained from Xantec (Duesseldorf, Germany). […] All analyses were performed at 25 °C. 10 mM HEPES (pH 7.4) with 150 mM NaCl, 0.005% Tween-20, 1.26 mM EDTA, and 5% DMSO was used as the running buffer.
(§2) HSA (essentially fatty acid free; Sigma Aldrich, St. Louis, MO, USA) and GSTP1 (Fitzgerald Industries International, North Acton, MA, USA) (50 μg/mL in 10 mM sodium acetate, pH 5.0) were immobilized on polycarboxylate hydrogel sensor chip surfaces using a standard amine-coupling protocol (flow rate of 10 μL/min) to obtain a density of 10–12 kRU [18]. Each of the four flavonoids was dissolved in DMSO to achieve a high concentration, then further diluted to a final 5% DMSO concentration in running buffer. Typically, the flavonoid concentration series spanned 0.01–500 μM. Five blanks were analyzed at the beginning of the analysis, and the remaining blanks were randomly injected throughout the analysis for double-referencing purposes.
(§3) In this study, we explored the SensiQ Pioneer’s dynamic SPR capability (also known as the OneStep® injection method), which is essentially a Taylor dispersion to create a gradient injection to quantify biomolecular interactions. In the Taylor dispersion method, analyte concentration is initially uniform, but it gradually changes into a sigmoidal gradient due to the combined actions of analyte diffusion and convective laminar flow within the dispersion capillary. This method saves sample preparation time, lessens the need for limited-supply sample materials, and eliminates possible human errors in the preparation of sample dilutions. Since the compounds are screened over a broader dilution range, content-rich data can be obtained from the preliminary screening step itself, and oftentimes, secondary screening can be avoided. A Taylor dispersion gradient injection of sucrose (3% w/v in running buffer) was performed in parallel as a diffusion standard to account for experimental deviations such as buffer viscosity, flow rate, temperature, etc. The analytes were injected in running buffer using the same Taylor diffusion gradient injection mode with a flow rate of 25 μL/min.
SPR response data (sensorgrams) were zeroed at the beginning of each injection and double referenced. For kinetic analyses, the responses were plotted against the analyte concentration and fit to a 1:1 (A + B = AB) or 1:2 (A + 2B = AB1 + AB2) binding model using Qdat analysis software (SensiQ Technologies, Inc., Oklahoma City, OK, USA) and GraphPad Prism 5.04 (GraphPad Software Inc., La Jolla, CA, USA).

Series [2] concerns the target T2, glutathione S-transferase pi isoform-1 (GSTP1) (Homo sapiens, UniProt P09211).
T2 construct: purchased Fitzgerald Industries International
The series can be described thus: Taylor dispersion (OneStep) SPR, equilibrium analysis of flavonoids on immobilized GSTP1. Conditions: GSTP1, one binding site, 1:1 equilibrium analysis model, 25 °C. How it is done: as §1, §2, §3
SPR response data (sensorgrams) were zeroed at the beginning of each injection and double referenced. For kinetic analyses, the responses were plotted against the analyte concentration and fit to a 1:1 (A + B = AB) or 1:2 (A + 2B = AB1 + AB2) binding model using Qdat analysis software (SensiQ Technologies, Inc., Oklahoma City, OK, USA) and GraphPad Prism 5.04 (GraphPad Software Inc., La Jolla, CA, USA). […]

Series [3] concerns the target T1, human serum albumin (HSA). The series can be described thus: Conventional (standard fixed-concentration injection) SPR, HSA-quercetin validation. Type of series: binding. How it is done: as §1, §2
For assay validation, a conventional SPR method was used as a comparison. The interaction of HSA with quercetin was chosen for validation. For the conventional SPR method, analyte dilutions were prepared manually in a twofold dilution series starting with 500 μM as the highest concentration. […]

[4] abbreviates: HSA, Site 1, 25 °C, OneStep SPR, global kinetic fit (1:2 model; kaempferol 1:1), read-out: KD (equilibrium dissociation constant), Site 1.
The mark [5] stands for this setting: human, Site 1, 25 °C, OneStep SPR, global kinetic fit (1:2 model; kaempferol 1:1), read-out: ka (association rate constant), Site 1.
Setting [6] is: human, Site 1, 25 °C, OneStep SPR, global kinetic fit (1:2 model; kaempferol 1:1), read-out: kd (dissociation rate constant), Site 1.
The mark [7] stands for this setting: human, Site 2, 25 °C, OneStep SPR, 1:2 model, read-out: ka (association rate constant), Site 2.
Setting [8] is: human, Site 2, 25 °C, OneStep SPR, 1:2 model, read-out: kd (dissociation rate constant), Site 2.

Values joined by “and” are separate entries in the source; they are usually repeats but may differ in a detail not shown here. Equal entries are not always repeated. Where two headings read alike, the source gives them in different places.

T1 sequence (P02768 25-609): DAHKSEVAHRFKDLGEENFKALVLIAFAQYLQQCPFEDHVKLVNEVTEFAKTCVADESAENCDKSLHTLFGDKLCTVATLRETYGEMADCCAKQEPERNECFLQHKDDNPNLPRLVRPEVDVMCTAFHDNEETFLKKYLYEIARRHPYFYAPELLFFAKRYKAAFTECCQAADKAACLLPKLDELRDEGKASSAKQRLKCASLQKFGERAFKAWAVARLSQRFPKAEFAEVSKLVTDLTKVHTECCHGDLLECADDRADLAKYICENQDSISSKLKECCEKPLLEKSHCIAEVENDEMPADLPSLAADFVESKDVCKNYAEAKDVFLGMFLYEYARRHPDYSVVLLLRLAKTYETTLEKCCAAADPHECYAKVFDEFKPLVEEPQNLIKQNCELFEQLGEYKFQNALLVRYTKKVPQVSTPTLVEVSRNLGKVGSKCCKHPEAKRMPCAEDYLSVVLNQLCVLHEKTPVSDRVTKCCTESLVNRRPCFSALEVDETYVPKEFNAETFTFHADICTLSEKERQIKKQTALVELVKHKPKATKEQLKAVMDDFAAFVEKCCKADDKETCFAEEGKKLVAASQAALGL
T2 sequence (P09211 whole entry, canonical isoform): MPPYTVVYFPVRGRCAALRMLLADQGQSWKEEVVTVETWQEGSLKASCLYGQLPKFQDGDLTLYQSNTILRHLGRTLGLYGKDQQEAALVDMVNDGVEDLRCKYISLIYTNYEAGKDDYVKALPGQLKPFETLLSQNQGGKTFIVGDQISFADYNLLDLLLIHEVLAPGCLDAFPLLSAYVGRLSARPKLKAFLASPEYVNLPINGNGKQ

For `O=c1cc(-c2ccc(O)c(O)c2)oc2cc(O)cc(O)c12` [Luteolin, luteolin], the Kd came out at 63.4 µM in series [1] (setting [4]); 406 µM in series [1] (human, pH 7.4); 31.5 ± 0.2 µM in series [2]. Further, the kon in series [1] (setting [5]) was found to be 3200 ± 300000 M⁻¹ s⁻¹; in series [1] (setting [7]), 17.1 ± 1 M⁻¹ s⁻¹. For the same compound, the koff was 0.205 ± 0.005 s⁻¹ in series [1] (setting [6]) and 0.007 ± 0.001 s⁻¹ in series [1] (setting [8]).
Turning to `O=c1c(O)c(-c2ccc(O)cc2)oc2cc(O)cc(O)c12` [Kaempferol, kaempferol], the Kd is 0.037 µM in series [1] (setting [4]) and 45 ± 0.2 µM in series [2]. Moreover, the kon in series [1] (setting [5]) worked out at 48400 ± 6e+06 M⁻¹ s⁻¹. For the same compound, the koff in series [1] (setting [6]) was 0.002 ± 0.002 s⁻¹.
Consider `O=c1c(O)c(-c2ccc(O)c(O)c2)oc2cc(O)cc(O)c12` [Quercetin, quercetin], for which the Kd in series [1] (setting [4]) was 0.063 µM; in series [1] (human, pH 7.4) it was over 500 µM; in series [2] it was ~27.5 µM and 27.5 µM; in series [3] (HSA, conventional SPR, two fold dilution series from 500 μM, quadruplicate, 1:2 model, read-out: KD1 (affinity towards HSA)), 0.068 ± 0.002 µM; in series [3] (human, pH 7.4), over 500 µM. Further, the kon in series [1] (setting [5]) was determined as 240000 ± 1e+08 M⁻¹ s⁻¹; in series [1] (setting [7]), 100 ± 1000 M⁻¹ s⁻¹. Also, the koff was 0.016 ± 0.003 s⁻¹ in series [1] (setting [6]) and 0.405 ± 0.004 s⁻¹ in series [1] (setting [8]).
`Oc1ccc(/C=C/c2cc(O)cc(O)c2)cc1` [Resveratrol, resveratrol]: the Kd in series [1] (setting [4]) is 0.4 µM; in series [1] (human, pH 7.4), 180 µM; in series [2], 78 ± 0.1 µM. The values for the kon in series [1] (setting [5]) and in series [1] (setting [7]) were 7000 ± 200000 M⁻¹ s⁻¹ and 2900 ± 600000 M⁻¹ s⁻¹, respectively. Also, the koff in series [1] (setting [6]) stood at 0.003 ± 0.002 s⁻¹; in series [1] (setting [8]), 0.52 ± 0.003 s⁻¹.
